# Data taken from patent US11285192B2, “Formulation including a combination of beta-endorphin and adrenocorticotropic hormone” (Adamis Pharmaceuticals Corporation, priority 2019, dated 2022).
# Structures can show the parent of a compound that is named as a salt.
# Tests used:
# [1] = system: EAE induced in SJL mice by PLP139-151/CFA immunization; assay: EAE therapeutic model repeated with greater doses, FTY720 reference (Example 4); format: in vivo, mouse
# Method: To further explore the effect of dosage, the model was repeated, essentially as described in Example 3, using greater doses, specifically 53 μg of ACTH+27 μg of β-endorphin (low dose), and 128 […] of ACTH+64 μg of β-endorphin (high dose). Additionally FTY720 (fingolimod, an FDA-approved drug for the treatment of multiple sclerosis) was used as a reference (positive control) treatment instead of prednisolone, which had not shown strong efficacy in Example 3. FTY720 is one of the most efficacious drugs in both EAE and MS. Immunization was on Day 0, treatment started on Day 20, and the mice were observed through Day 42.
# Histological analysis confirmed the clinical findings (Table 9). Histologic readouts were inflammatory foci per section, demyelination (based on anti-myelin basic protein (MBP) staining), and apoptotic cells per section. […] A low number of inflammatory infiltrates confirms absence of both clinical and subclinical inflammation in the CNS. Histological findings in the high dose test group were generally similar to the FTY720 reference group.
# [2] = system: EAE induced by PLP139-151/CFA Emulsion PTX; assay: EAE prophylactic model, treatment from immunization, with pertussis toxin (Example 5); format: in vivo, mouse; details: 3 mg/kg p.o. daily
# Method: The efficacy of the combination of ACTH and β-endorphin was also tested in a prophylactic model of EAE. In contrast with the therapeutic model used above, in which treatment is initiated only after EAE onset and recovery from the first wave of the disease, in the prophylactic model, treatment is initiated at the time of immunization and the mice are followed for only 3 weeks. Additionally, pertussis toxin (PTX) is used as an additional adjuvant in the immunization, producing a more sever first wave of disease with slower recovery.
# Mice were injected subcutaneously at four sites in the back with 0.05 mL of the emulsion component of HOOKE KIT™ PLP139-151/CFA Emulsion PTX (catalog number EK-2120; Hooke Laboratories, Lawrence Mass.). Two sites of injection were in the upper back approximately 1 cm caudal of the neck line. The other two sites were in the lower back approximately 2 cm cranial of the base of the tail. Two hours later the pertussis toxin component of the kit was administered intraperitoneally. A 30 ng dose of PTX was used to attain optimal disease severity. Mice were administered vehicle or 128 μg ACTH+64 μg β-endorphin by subcutaneous injection every 2nd day, as a negative control and test treatment, respectively. As reference treatment (positive control) mice received 3 mg/kg FTY720 daily by oral administration. There were 12 mice in each of these three groups. The vehicle and test treatment groups were dosed from Day 0 through Day 18 (the last dose in the test treatment group was 88 μg ACTH+44 μg β-endorphin due to lab mishap). The reference treatment group was dosed from Day 0 through Day 19. Clinical scoring was as presented in Table 4 (above) beginning on Day 7 and continuing through Day 20.
# [3] = system: EAE induced in SJL mice by PLP139-151/CFA immunization; assay: EAE late therapeutic model of relapsing-remitting multiple sclerosis, treatment from Day 20 (Example 3); format: in vivo, mouse
# Method: The effect of administration of two dosages of ACTH and β-endorphin on severity and relapse in EAE was evaluated. EAE was induced in SJL mice by PLP139-151/CFA immunization on Day 0. Treatment was late therapeutic, starting on Day 20 after immunization for each mouse. Mice were observed through the end of the study, Day 42 after immunization. Four groups of 20 mice each received one of the following treatments: vehicle (a negative control); 10 mg/kg oral prednisolone daily (reference treatment); 32 μg ACTH+16 μg endorphin by subcutaneous injection, every 2nd day (low dose); or 64 μg ACTH+32 μg β-endorphin by subcutaneous injection, every 2nd day (high dose).
# Mice were injected subcutaneously at four sites in the back with emulsion containing PLP139-151 (native sequence) from HOOKE KIT™ PLP139-151/CFA Emulsion, catalog number EK-0120 (Hooke Laboratories, Lawrence Mass.). Two sites of injection were in the upper back approximately 1 cm caudal of the neck line. The other two sites were in the lower back approximately 2 cm cranial of the base of the tail. The injection volume was 0.05 mL at each site. Even without treatment, most mice recover spontaneously after the first wave of disease. In the SJL model, EAE develops 10-15 days after immunization in 90-100% of immunized mice. The first wave of EAE lasts several days and most mice fully or almost fully recover from this first wave. After a disease-free period, which can last from one day to several months, most mice relapse. During the first 5-7 weeks after immunization, 50-100% of mice will develop a relapse. Each wave of paralysis results in body weight loss at onset, most of which is regained at recovery from the wave. The greatest weight loss is during the first wave of EAE. During the chronic phase of disease, the average EAE body weight is relatively stable, with normal slow increase with age. Since individual mice experience relapses at different times, only a few mice in each group are acutely sick at any given time after the first wave of EAE. Therefore, significant differences in relative body weight between groups are often not found after the first wave of disease in this model. In the vehicle treated group, disease developed as expected for this model. Five (5) mice were euthanized on Day 30 for analysis. Relapse occurred in 7 out of the 15 remaining mice, which were followed to Day 42, with typical course and severity of disease.
# 100 EAE induced mice were initially considered a single group and were scored daily starting on Day 9 after immunization. […]
# Treatment started on the day of group assignment (Day 20 after immunization). […] EAE score was determined daily by a person unaware of both treatment and of previous scores for each mouse. Weight was measured 3 times a week. […]
# [4] = system: EAE induced by PLP139-151/CFA Emulsion PTX; details: past experience with this model; cited from earlier work
# [5] = per one mg of ACTH, based on rat potency testing; cited from earlier work
compound,measurement,setting,value
"CCCCCCCCc1ccc(CCC(N)(CO)CO)cc1 [FTY720, fingolimod]",Apoptotic cells/section ± SD,[1]; 1 mg/kg p.o. QD,0.3 ± 0.4 cells/section
same,Demyelination (anti-MBP) ± SD,[1]; 1 mg/kg p.o. QD,0.1 ± 0.2
same,Incidence of relapse,[1]; 1 mg/kg p.o. QD from Day 20,12.5%
same,MMS of relapse period ± SD (Days 20-42),[1]; 1 mg/kg p.o. QD from Day 20,1.94 ± 0.50
same,End % body weight ± SD,"[1]; 1 mg/kg p.o. QD from Day 20, % of starting weight",97.65 ± 5.3%
same,End score ± SD,"[1]; 1 mg/kg p.o. QD from Day 20, Day 42",1.06 ± 0.62
same,Inflammatory foci/section ± SD,"[1]; 1 mg/kg p.o. QD, spinal cord histology",0.5 ± 0.4 foci/section
same,End % body weight ± SD,[2]; Day 0-19,98.3% ± 7.8%
same,MMS ± SD,[2]; Day 0-19,0.92 ± 1.16
same,End score ± SD,"[2]; Day 0-19, Day 20",0.79 ± 1.01
same,Median day of onset (all mice),"[2]; Day 0-19, cannot be calculated if ≤50% of mice developed disease",>20.0^1
same,EAE incidence (%),"[2]; Day 0 through Day 19, scored through Day 20",41.7%
"C[C@]12C=CC(=O)C=C1CC[C@@H]1[C@@H]2[C@@H](O)C[C@@]2(C)[C@H]1CC[C@]2(O)C(=O)CO [Prednisolone, prednisolone]",Change in body weight versus vehicle control (FIG. 2),[3]; 10 mg/kg p.o. daily,statistically significant loss of weight versus the vehicle control
same,MMS of relapse period ± SD (Days 25-42),"[3]; 10 mg/kg p.o. daily from Day 20, mean maximal score",2.07
same,Iba1 ± SD (% of area),"[3]; 10 mg/kg p.o. daily, microglial activation, % of total spinal cord area",4.0 ± 1.2 % of area
same,"Mean clinical score over the course of the study (FIG. 1), compared to vehicle",[3]; reference treatment 10 mg/kg p.o. daily,more moderate benefit
"COC(=O)/C=C/C(=O)OC [TECFIDERA®, dimethyl fumarate]",Complete suppression of development of EAE,[4],neither COPAXONE® (glatiramer acetate injection) nor TECFIDERA® (dimethyl fumarate) completely suppressed development of EAE
"ACTH: 39 amino acid peptide, adrenocorticotropic hormone (SYSMEHFRWGKPVGKKRRPVKVYPNGAEDESAEAFPLEF; Corticotropin; UniProt P01189 138-176, looked up)",Potency of ACTH in units,[5],about 150 units
